Measured values from article PMC6900016, “Synthesis of Indomorphan Pseudo‐Natural Product Inhibitors of Glucose Transporters GLUT‐1 and ‐3” (Angewandte Chemie (International Ed. in English), 2019).

System: HCT116
Experiment: cells
Design: 2-deoxyglucose uptake inhibition, semi-automated resazurin/diaphorase fluorescence read-out of 2DG6P
Conditions: Homo sapiens, HCT-116, 0.5 h; 2DG uptake
Description: Resazurin-based 2DG uptake assay (semi-automated high throughput) All buffers, reagents and steps were identical with those described for the manual screening Washing and [compound left out] addition steps were done using an automated cell washer or a multidrop device, respectively. Screening was performed in a 384-well plates. 15,000 HCT116 cells/well seeded into 384-well black-walled, clear bottomed plates (CellBIND, Corning) and incubated overnight. Compounds were added at 30 µM (final concentration for screening or serial dilutions staring from 30 µM for IC50 determinations) from DMSO stocks using the acoustic nanoliter dispenser ECHO 520. Fluorescence intensity was read from the bottom with a SpectraMax Paradigm Multi-Mode Microplate Reader (Molecular devices) using SUPPORTING INFORMATION 259 control (which was set to 100 %) and cells without 2DG (set to 0 %) using Graph Pad Prism 5 or 6 software and IC50 values were determined using a four-parameter fit. The observed difference in the obtained IC50 values for Glupin in the automated screening vs. manually performed assay is most likely attributed to the minituarization that is required for high-troughput screening and usually requires different plate format (384 vs. 96-well plates) and different cell number. In this case, the automated assay was performed in 384-well plates (vs. 96-well plates for the manual assay) with 15,000 cells per well (vs. 40,000 cells per well in the 96-well plates). For kinetic measurements, 15,000 cells were seeded into black CellBIND 384-well plates (Corning) and allowed to attach overnight. Then, the plates were washed 3X with KRB buffer containing 0.1%BSA and treated with different concentrations of 2DG (0-60mM) and Glupin (0-1µM) for 30s to 30min. The uptake was determined using the resazurin/diaphorase system as described above. 2DG uptake was stopped by aspirating the 2DG solution followed by quick wash with ice-cold KRB buffer (0.1 % BSA). Km and Vmax were determined by fitting the data according to Michaelis-Menten using non-linear fitting. The glucose uptake assay monitored the inhibition of 2‐deoxyglucose (2DG) uptake as described by Yamamoto et al.25 Briefly, 2DG uptake is determined by quantification of the 2DG‐6‐phosphate (2DG6P) that accumulates inside the cells by using the diaphorase‐resazurin/‐resorufin system (see Figure S7 a).

SMILES | IC50 [µM]
CCOC(=O)n1c2c(c3ccccc31)CC1CC2C(OC)CN1C(=O)c1cccnc1SC (racemic) [5p, (±)-ethyl 5-methoxy-3-(2-(methylthio)nicotinoyl)-3,4,5,6-tetrahydro-1H-2,6-methanoazocino[5,4-b]indole-7(2H)-carboxylate] | 28 ± 2
CCOC(=O)CCn1c2c(c3ccccc31)CC1CC2C(OC)CN1C(=O)c1cccnc1SC (racemic) [5q, (±)-ethyl 3-(5-methoxy-3-(2-(methylthio)nicotinoyl)-3,4,5,6-tetrahydro-1H-2,6-methanoazocino[5,4-b]indol-7(2H)-yl)propanoate] | 8.4 ± 3.6
CCOC(=O)Cn1c2c(c3ccccc31)CC1CC2C(OC)CN1C(=O)c1cc(C(F)(F)F)cnc1SC (racemic) [5y, (±)-Ethyl 2-(5-methoxy-3-(2-(methylthio)-5-(trifluoromethyl)nicotinoyl)-1,2,3,4,5,6-hexahydro-7H-2,6-methanoazocino[5,4-b]indol-7-yl)acetate] | 14 ± 4
CNC(=O)Cn1c2c(c3ccccc31)CC1CC2C(OC)CN1C(=O)Cc1cccs1 (centres unmarked) [5au] | 16 ± 1
CNC(=O)Cn1c2c(c3ccccc31)CC1CC2C(OC)CN1C(=O)c1cnccn1 (centres unmarked) [5av] | > 30
COC1CN(C(=O)c2cnccn2)C2Cc3c(n(CC(N)=O)c4ccccc34)C1C2 (centres unmarked) [5ax] | > 30
CNC(=O)Cn1c2c(c3ccccc31)CC1CC2C(OC)CN1C(=O)N1CCOCC1 (centres unmarked) [5ay] | > 30
CNC(=O)Cn1c2c(c3ccccc31)CC1CC2C(OC)CN1C(=O)Nc1cccc(C(F)(F)F)c1 (centres unmarked) [5az] | > 30
CCOC(=O)Cn1c2c(c3cc(C(=O)OCC)ccc31)CC1CC2C(OC)CN1C(=O)c1cccnc1SC (centres unmarked) [5i, Ethyl 7-(2-ethoxy-2-oxoethyl)-5-methoxy-3-(2-(methylthio)nicotinoyl)-2,3,4,5,6,7-hexahydro-1H-2,6-methanoazocino[5,4-b]indole-10-carboxylate] | > 30

Stronger by IC50, values ahead:

IC50 [µM] | SMILES
6.7 ± 1.6 | CCOC(=O)Cn1c2c(c3ccccc31)CC1CC2C(OC)CN1C(=O)c1c(C(F)(F)F)ccnc1SC (racemic) [5x, (±)-Ethyl 2-(5-methoxy-3-(2-(methylthio)-4-(trifluoromethyl)nicotinoyl)-1,2,3,4,5,6-hexahydro-7H-2,6-methanoazocino[5,4-b]indol-7-yl)acetate]
3.4 ± 0.3 | CCOC(=O)Cn1c2c(c3ccccc31)CC1CC2C(OC)CN1C(=O)c1ccco1 (centres unmarked) [5s]
3.16 | CCOC(=O)Cn1c2c(c3ccccc31)CC1CC2C(OC)CN1C(=O)N1CCOCC1 (centres unmarked) [5r]
2.3 ± 0.8 | CCOC(=O)Cn1c2c(c3ccccc31)CC1CC2C(OC)CN1C(=O)c1cccnc1 (racemic) [5t, (±)-Ethyl 2-(5-methoxy-3-nicotinoyl-3,4,5,6-tetrahydro-1H-2,6-methanoazocino[5,4-b]indol-7(2H)-yl)acetate]
2 ± 0.4 | CCOC(=O)Cn1c2c(c3ccccc31)CC1CC2C(OC)CN1C(=O)c1cnccn1 (centres unmarked) [5aw]
1.45 ± 0.6 | CNC(=O)Cn1c2c(c3ccccc31)CC1CC2C(OC)CN1C(=O)c1cccnc1SC (centres unmarked) [5m]
0.54 ± 0.16 | CCOC(=O)Cn1c2c(c3ccccc31)CC1CC2C(OC)CN1C(=O)c1cccnc1F (racemic) [5u, (±)-Ethyl 2-(3-(2-fluoronicotinoyl)-5-methoxy-1,2,3,4,5,6-hexahydro-7H-2,6-methanoazocino[5,4-b]indol-7-yl)acetate]
0.23 ± 0.05 | CCOC(=O)Cn1c2c(c3ccccc31)CC1CC2C(OC)CN1C(=O)c1cccnc1OC (racemic) [5v, (±)-Ethyl 2-(5-methoxy-3-(2-methoxynicotinoyl)-1,2,3,4,5,6-hexahydro-7H-2,6-methanoazocino[5,4-b]indol-7-yl)acetate]
0.12 ± 0.03 | CCOC(=O)Cn1c2c(c3ccccc31)CC1CC2C(OC)CN1C(=O)c1cccnc1C(F)(F)F (racemic) [5w, (±)-Ethyl 2-(5-methoxy-3-(2-(trifluoromethyl)nicotinoyl)-1,2,3,4,5,6-hexahydro-7H-2,6-methanoazocino[5,4-b]indol-7-yl)acetate]
0.12 ± 0.02 | C=CCOC1CN(C(=O)c2cccnc2SC)C2Cc3c(n(CC(=O)OCC)c4ccccc34)C1C2 (racemic) [5z, (±)-Ethyl 2-(5-(allyloxy)-3-(2-(methylthio)nicotinoyl)-1,2,3,4,5,6-hexahydro-7H-2,6-methanoazocino[5,4-b]indol-7-yl)acetate]
0.055 ± 0.017 | CCOC(=O)Cn1c2c(c3ccccc31)CC1CC2C(OC)CN1C(=O)c1cccnc1SC (racemic) [(±)-Glupin]
